We go through one compound from patent publication US6235707A, “Anticoagulant peptidyl-arginine aldehyde derivatives” (Gyogyszerkutato Intezet Kft., priority 1996, dated 2001).

Experiment [1] relates to New Zealand white rabbits. In words: ex vivo TT in citrate plasma of rabbits after p.o. dosing. Also noted: species or system rabbit. The following applies: p.o. 5 mg/kg. The procedure:
The anticoagulant and platelet aggregation inhibiting effect of the compounds of general formula (I) was studied in New Zealand white rabbits ex vivo according to D. Bagdy et al. [Thromb. Haemost. 67, 357 (1992)]. The compounds were dissolved in buffered isotonic saline solution and administered i.v. (0,04-5.0 mg/kg) or by infusion (0.25-5.0 mg/kg/h) or subcutaneously (0.5-6.0 mg/kg) or p.o. (2.5-20 mg/kg). The effect of the compounds was detectable already within 30 minutes following p.o. administration, peak values were attained after 60-180 minutes and the therapeutic level was maintained dose-dependently for 3→6 hours.
The in vivo effect of ethoxycarbonyl-3-cyclobutyl-D-alanyl-L-prolyl-L-arginine aldehyde (1) is presented in detail in Tables 6 and 7. The corresponding values of C1 are listed as controls. The compound was administered p.o. in doses of 5 mg/kg. The blood samples drawn from the caudal vein in every 30-60 minutes were analysed. The whole blood clotting time (WBCT) and the inhibition of thrombin-induced blood platelet aggregation (PAI) were determined. The activated partial thromboplastin time (APTT) and the thrombin time (TT) in the citrate plasma obtained from the blood sample were also measured. The APTT and TT values are compiled in Table 6 and the WBCT and PAI values in Table 7.

For another experiment, the system named is citrate plasma. The experiment in a line: activated partial thromboplastin time (APTT) plasma clotting test. The class given is biochemical. As to conditions: Table 3; twofold prolongation compared to control; read-out: A: anticoagulant IC50, APTT. The protocol: Anticoagulant activity (i.e. inhibition of the proteolytic reactions in the process) is measured by anticoagulant tests, e.g. in the thrombin time (TT), activated partial thromboplastin time (APTT) and prothrombin time (PT) tests [E. J. W. Bovie et al., Mayo Clinic Laboratory Manual of Haemostasis; W. B. Saunders Co., Philadelphia (1971)]. Plasma, inhibited in spontaneous coagulation, e.g. citrate-plasma, is made to coagulate and the required coagulation time is measured. Upon the action of anticoagulants the coagulation time is prolonged proportionally to the inhibition of the reaction(s) in the process. The anticoagulant effect can be characterised by the substance concentration required to prolong the coagulation time twofold compared to the control (IC50). The effect of anticoagulants on individual coagulant proteases is measured by the amidolytic method [R. Lottenberg et al., Methods in Enzymol. 80, 341 (1981); G. Cleason, Blood Coagulation and Fibrinolysis 5, 411 (1994)]. The isolated active factor (e.g. thrombin, fXa) and its chromogen or fluorogen peptide-amide substrate are reacted in the presence or absence of the inhibitor, resp. The enzyme inhibiting action is characterised by the inhibitory constant (IC50) measured during amidolysis.
In the TT test coagulation is initiated by the thrombin added to the citrate plasma. In the system 22 pmol/ml of thrombin is functioning and its inhibition can be measured on the fibrinogen (one of the natural substrates of thrombin) in the presence of plasma components. In the APTT and PT tests the full coagulation process takes place. Depending on the activator fX is activated either by the extrinsic or the intrinsic pathway. The generated fXa activates prothrombin to thrombin which, in turn, triggers plasma coagulation. The coagulation time is prolonged if the enzymes or one of them is inhibited by the inhibitor. In the APTT and PT tests at most 40 pmol/ml Xa can be generated (this is the full amount of factor X present in both systems) while 150 pmol/ml (APTT) and 350 pmol/ml (PT) of thrombin are generated [B. Kaiser et al., Thromb. Res. 65, 157 (1992)].
The in vitro anticoagulant effects of the compounds of general formula (I) was measured by the prothrombin time (PT), activated partial thromboplastin time (APTT) and thrombin time (TT) tests [D. Bagdy et al., Thromb. Haemost. 67, 325 (1992)]. The fxa-inhibiting effect of the compounds was also determined using the Bz-Ile-Glu-Gly-Arg-pNA chromogen substrate (see method M6).

In general, IC50 refers to the concentration that gives 50% inhibition. Regarding `CCOC(=O)N[C@H](CC1CCC1)C(=O)N1CCC[C@H]1C(=O)N[C@H](C=O)CCCNC(=N)N` [Example 1, Ethoxycarbonyl-3-cyclobutyl-D-alanyl-L-prolyl-L-arginine aldehyde], the “TT relative clotting time” value in experiment [1] (0 min) was found to be 1.0; in experiment [1] (30 min), 8.30 ± 5.67; in experiment [1] (45 min), 9.04 ± 5.50; in experiment [1] (60 min), 9.28 ± 5.45; in experiment [1] (90 min), 13.58 ± 5.43; in experiment [1] (120 min), 16.33 ± 5.89. Further, the “TT relative clotting time” value in experiment [1] (180 min) came out at 6.95 ± 3.73; in experiment [1] (240 min), 2.03 ± 0.42; in experiment [1] (300 min), 1.77 ± 0.50. Also, the IC50 in the experiment on citrate plasma worked out at 350 nM.
